According to patent US20250002452A1, “BICYCLOPENTANE DERIVATIVES” (ICAGEN, LLC, priority 2022, published 2025):

Molecular target: human Kv7.2 (Homo sapiens (Human), UniProt O43526)
Assay: SyncroPatch 384 electrophysiology, activation of Kv7.2 in CHO cells
Format: cell-based
Settings: Kv7.2 activation max %, relative to 30 μM ML-213 max activation
Method: The potency of Kv7 uotentiators was determined using the SyncroPatch 384 (Nanion) high throughput electrophysiology platform.
CHO cells stably expressing either human Kv7.2, Kv7.4 or Kv7.5/7.3 under a constitutive CMV promoter were used for these studies. Cells were maintained in F12 Hams+1 mM L-glutamine (Hyclone) supplemented with 10% FBS (Sigma), 0.3× NEAA (Non-essential Gamino-acids) and 400ug/ml G418 at 37° C. in 5% CO2. Cells were cultured in T-225 flasks (Nunc) for 2-3 days to reach 85-95% confluence prior to electrophysiological recording.
Earle's balanced salt solution (in mM): 135 NaCl, 5.4 KCl, 5 Glucose, 2 CaCl2), 1 MgCl2, 5 HEPES, pH 7.4. Seal enhancer solution (in mM): 90 NaCl, 3 KCl, 35 CaCl2), 10 MgCl2, 10 HEPES, pH 7.4. Extracellular recording solution (in mM): 71 NaCl, 70 NMDG, 13 KCl, 5 Glucose, 2 CaCl2), 1 MgCl2, 10 HEPES, pH 7.4. Intracellular recording solution (in mM): 130 KF, 20 KCl, 4 EGTA, 10 HEPES, 2 EDTA, 0.01 Escin, pH 7.2.
Cells were harvested for electrophysiological recording upon reaching appropriate confluence. Cells were first washed in DPBS (Hyclone, Cat #SH30028.03) and then 2 ml of Accutase (MP Biomedicals #1000449) was added at 28° C. until ˜90% of cells were suspended. F12 HAM's media+1 mM L-glutamine (Hyclone, SH30026.02) was then added to the flask to dilute the accutase. Cells were then triturated until a single cell suspension was achieved, a cell count was performed, and cells were centrifuged for 2 min. at 1,000 rpm. Media was then aspirated, and cells were resuspended in Earle's balanced salt solution to a concentration of 0.75×10^6 cells/ml and allowed to recover for 25 min at 10° C.
At the beginning of each assay, 20 μl of cell suspension was dispensed into each well of a multi-hole 384-well SyncroPatch chip by the onboard pipettor. Cell sealing was initiated, and seal enhancer solution was added to facilitate seal formation. Upon completion of sealing, cells were washed 3 times with extracellular recording solution and the assay voltage protocol was started. Human Kv7.2, Kv7.4 or Kv7.5/7.3 channels were evaluated using a voltage protocol in which cells were voltage-clamped at a holding potential of −60 mV. Potassium currents were continuously activated with a series of three voltage steps to −30 mV for 3 seconds, 40 mV for 1 second and −90 mV for 4 seconds with 12 seconds between successive voltage sweeps. Potassium currents were measured from the −90 mV repolarizing step. Baseline current was assessed for 3.5 minutes prior to the addition of 5.6 μM zinc pyrithione (1μM for Kv7.4). Kv7.2, Kv7.4 or Kv7.5/7.3 current in the presence of zinc pyrithione was acquired over five minutes to allow channels to reach steady state activity prior to addition of test agents. Channel activity was monitored for three minutes preceding the addition of 30 μM ML-213 (3 minutes) to achieve maximum activation. 150 mM TEA with 10 μM XE-991 was applied for 2 minutes to measure the leak current during maximum inhibition of Kv7.2, Kv7.4 or Kv7.5/7.3 channels.
Example 61 Data Analysis Data were collected on the SyncroPatch platform using PatchControl software (Nanion) and processed and analyzed using DataControl Software (Nanion). Percent activation was calculated from potassium current as follows: The average current for the 5 sweeps in the presence of zinc pyrithione immediately preceding test agent addition was taken as the ‘control’ data. Likewise, the average potassium current in the presence of test agents 5 sweeps immediately preceding addition of 30 μM ML-213 was determined for ‘drug’ data. The average potassium current 5 sweeps immediately prior to addition of 150 mM TEA+10 μM XE-991 was determined for ‘max activation’ data while average currents from 5 sweeps immediately following addition of TEA was determined for ‘max inhibition’ data. […]

Structure (SMILES) | Kv7.2 max [%]
O=C(NCc1ccc2c(c1)OC(F)(F)O2)NC12CC(C(F)(F)F)(C1)C2 [Example 33, 1-[(2,2-difluoro-1,3-benzodioxol-5-yl)methyl]-3-[3-(trifluoromethyl)-1-bicyclo[1.1.1]pentanyl]urea] | 58
O=C(NCc1cccc(OCF)c1)NC12CC(C(F)(F)F)(C1)C2 [Example 34, 1-[[3-(fluoromethoxy)phenyl]methyl]-3-[3-(trifluoromethyl)-1-bicyclo[1.1.1]pentanyl]urea] | 56
O=C(NCc1cccc(Br)c1)NC12CC(C(F)(F)F)(C1)C2 [Example 36, 1-[(3-bromophenyl)methyl]-3-[3-(trifluoromethyl)-1-bicyclo[1.1.1]pentanyl]urea] | 55
CC(NC(=O)NC12CC(C1)C2)c1cccc(OC(F)(F)F)c1 (centres unmarked) [Example 37, 1-(1-bicyclo[1.1.1]pentanyl)-3-[1-[3-(trifluoromethoxy)phenyl]ethyl]urea] | 44
O=C(NCc1cccc(Br)c1)NC12CC(C1)C2 [Example 40, 1-(1-bicyclo[1.1.1]pentanyl)-3-[(3-bromophenyl)methyl]urea] | 58
O=C(N[C@H](CO)c1cccc(Br)c1)NC12CC(C(F)(F)F)(C1)C2 [Example 44, 1-[(1S)-1-(3-bromophenyl)-2-hydroxyethyl]-3-[3-(trifluoromethyl)-1-bicyclo[1.1.1]pentanyl]urea] | 40
N#Cc1cccc(CNC(=O)NC23CC(C(F)(F)F)(C2)C3)c1F [Example 47, 1-[(3-cyano-2-fluorophenyl)methyl]-3-[3-(trifluoromethyl)-1-bicyclo[1.1.1]pentanyl]urea] | 40
O=C(N[C@@H](CO)c1cccc(C(F)(F)F)c1)NC12CC(C(F)(F)F)(C1)C2 [Example 48, 1-[(1R)-2-hydroxy-1-[3-(trifluoromethyl)phenyl]ethyl]-3-[3-(trifluoromethyl)-1-bicyclo[1.1.1]pentanyl]urea] | 78
C[C@H](NC(=O)NC12CC(C1)C2)c1cccc(C(F)(F)F)c1 [Example 51, 1-(1-bicyclo[1.1.1]pentanyl)-3-[(1S)-1-[3-(trifluoromethyl)phenyl]ethyl]urea] | 52
[2H]C([2H])(NC(=O)NC12CC(C(F)(F)F)(C1)C2)c1cccc(C#N)c1 [Example 52, 1-[(3-cyanophenyl)-dideuteriomethyl]-3-[3-(trifluoromethyl)-1-bicyclo[1.1.1]pentanyl]urea] | 42
O=C(NC12CC(C1)C2)NC1(c2cccc(C(F)(F)F)c2)CC1 [Example 53, 1-(1-bicyclo[1.1.1]pentanyl)-3-[1-[3-(trifluoromethyl)phenyl]cyclopropyl]urea] | 82
O=C(N[C@@H](CO)c1cccc(C(F)(F)F)c1)NC12CC(C1)C2 [Example 54, 1-(1-bicyclo[1.1.1]pentanyl)-3-[(1R)-2-hydroxy-1-[3-(trifluoromethyl)phenyl]ethyl]urea] | 78
O=C(NCc1ccc(F)c(OC(F)F)c1)NC12CC(C(F)(F)F)(C1)C2 [Example 56, 1-[[3-(difluoromethoxy)-4-fluorophenyl]methyl]-3-[3-(trifluoromethyl)-1-bicyclo[1.1.1]pentanyl]urea] | 44

Results, then the molecule that gave them:

Kv7.2 max [%] | Structure (SMILES)
63 | [2H]C([2H])(NC(=O)NC12CC(C(F)(F)F)(C1)C2)c1cccc(OC(F)(F)F)c1 [Example 35, 1-[dideuterio-[3-(trifluoromethoxy)phenyl]methyl]-3-[3-(trifluoromethyl)-1-bicyclo[1.1.1]pentanyl]urea]
40 | CC(NC(=O)NC12CC(F)(C1)C2)c1cccc(OC(F)F)c1 (centres unmarked) [Example 38, 1-[1-[3-(difluoromethoxy)phenyl]ethyl]-3-(3-fluoro-1-bicyclo[1.1.1]pentanyl)urea]
75 | O=C(NCc1cccc(S(F)(F)(F)(F)F)c1)NC12CC(C1)C2 [Example 39, 1-(1-bicyclo[1.1.1]pentanyl)-3-[[3-(pentafluoro-λ6-sulfanyl)phenyl]methyl]urea]
49 | O=C(NCc1cccc(Cl)c1)NC12CC(C1)C2 [Example 41, 1-(1-bicyclo[1.1.1]pentanyl)-3-[(3-chlorophenyl)methyl]urea]
110 | CC(C)(C)c1cccc(CNC(=O)NC23CC(C2)C3)c1 [Example 42, 1-(1-bicyclo[1.1.1]pentanyl)-3-[(3-tert-butylphenyl)methyl]urea]
78 | O=C(NCc1cccc(OC(F)F)c1)NC12CC(C1)C2 [Example 43, 1-(1-bicyclo[1.1.1]pentanyl)-3-[[3-(difluoromethoxy)phenyl]methyl]urea]
71 | O=C(NCc1cccc(C=C(F)F)c1)NC12CC(F)(C1)C2 [Example 45, 1-[[3-(2,2-difluoroethenyl)phenyl]methyl]-3-(3-fluoro-1-bicyclo[1.1.1]pentanyl)urea]
86 | CC12CC(NC(=O)NCc3cccc(OC(F)(F)F)c3)(C1)C2 [Example 46, 1-(3-methyl-1-bicyclo[1.1.1]pentanyl)-3-[[3-(trifluoromethoxy)phenyl]methyl]urea]
53 | N#CCOc1cccc(CNC(=O)NC23CC(C(F)(F)F)(C2)C3)c1 [Example 49, 1-[[3-(cyanomethoxy)phenyl]methyl]-3-[3-(trifluoromethyl)-1-bicyclo[1.1.1]pentanyl]urea]
72 | O=C(NCc1cccc(SC(F)(F)F)c1)NC12CC(F)(C1)C2 [Example 50, 1-(3-fluoro-1-bicyclo[1.1.1]pentanyl)-3-[[3-(trifluoromethylsulfanyl)phenyl]methyl]urea]
77 | O=C(N[C@@H](CO)c1cccc(OC(F)(F)F)c1)NC12CC(C(F)(F)F)(C1)C2 [Example 55, 1-[(1R)-2-hydroxy-1-[3-(trifluoromethoxy)phenyl]ethyl]-3-[3-(trifluoromethyl)-1-bicyclo[1.1.1]pentanyl]urea]
45 | O=C(NCc1cccc(OC(F)(F)F)c1F)NC12CC(C(F)(F)F)(C1)C2 [Example 57, 1-[[3-(trifluoromethoxy)-2-fluorophenyl]methyl]-3-[3-(trifluoromethyl)-1-bicyclo[1.1.1]pentanyl]urea]
67 | O=C(NCc1cccc(OCC(F)(F)F)c1)NC12CC(C(F)(F)F)(C1)C2 [Example 58, 1-[[3-(2,2,2-trifluoroethoxy)phenyl]methyl]-3-[3-(trifluoromethyl)-1-bicyclo[1.1.1]pentanyl]urea]
